This is an account of results in patent US20220144848A1, “SUBSTITUTED OXOPYRIDINE DERIVATIVES” (Bayer Aktiengesellschaft, priority 2018, published 2022).

Each structure is given as a SMILES string.

Assay [1] addresses T1, human factor XIa (Homo sapiens, UniProt P03951).
T1 construct: purchased Kordia
Briefly: Measurement of FXIa inhibition (fluorogenic peptide substrate Boc-Glu(OBzl)-Ala-Arg-AMC). To be noted: factor XIa from Kordia, 15 min preincubation, 30 min at 22° C., fluorescence; some as mean values from multiple determinations. In kind it is biochemical. How it is done: The factor XIa inhibition of the substances according to the invention is determined using a biochemical test system which utilizes the reaction of a peptidic factor XIa substrate to determine the enzymatic activity of human factor XIa. Here, factor XIa cleaves from the peptidic factor XIa substrate the C-terminal aminomethylcoumarin (AMC), the fluorescence of which is measured. The determinations are carried out in microtitre plates.
Test substances are dissolved in dimethyl sulfoxide and serially diluted in dimethyl sulfoxide (3000 μM to 0.0078 μM; resulting final concentrations in the test: 50 μM to 0.00013 μM). In each case 1 μl of the diluted substance solutions is placed into the wells of white microtitre plates from Greiner (384 wells). 20 μl of assay buffer (50 mM of Tris/HCl pH 7.4; 100 mM of sodium chloride; 5 mM of calcium chloride; 0.1% of bovine serum albumin) and 20 μl of factor XIa from Kordia (0.45 nM in assay buffer) are then added successively. After 15 min of incubation, the enzyme reaction is started by addition of 20 μl of the factor XIa substrate Boc-Glu(OBzl)-Ala-Arg-AMC dissolved in assay buffer (10 μM in assay buffer) from Bachem, the mixture is incubated at room temperature (22° C.) for 30 min and fluorescence is then measured (excitation: 360 nm, emission: 460 nm). The measured emissions of the test batches with test substance are compared to those of control batches without test substance (only dimethyl sulfoxide instead of test substance in dimethyl sulfoxide), and IC50 values are calculated from the concentration/activity relationships.

For assay [2], the target named is T2, human plasma kallikrein (Homo sapiens, UniProt P03952).
T2 construct: purchased Kordia
T2 sequence (P03952 391-638 limits assumed): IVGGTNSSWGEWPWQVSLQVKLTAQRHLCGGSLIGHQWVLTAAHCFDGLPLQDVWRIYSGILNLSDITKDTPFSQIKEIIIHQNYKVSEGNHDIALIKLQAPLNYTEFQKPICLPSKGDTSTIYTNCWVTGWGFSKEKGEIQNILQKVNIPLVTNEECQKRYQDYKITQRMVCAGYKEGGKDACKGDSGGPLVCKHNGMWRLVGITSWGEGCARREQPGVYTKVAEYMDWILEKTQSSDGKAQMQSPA
T2 sequence (P03952 20-390 partner limits assumed): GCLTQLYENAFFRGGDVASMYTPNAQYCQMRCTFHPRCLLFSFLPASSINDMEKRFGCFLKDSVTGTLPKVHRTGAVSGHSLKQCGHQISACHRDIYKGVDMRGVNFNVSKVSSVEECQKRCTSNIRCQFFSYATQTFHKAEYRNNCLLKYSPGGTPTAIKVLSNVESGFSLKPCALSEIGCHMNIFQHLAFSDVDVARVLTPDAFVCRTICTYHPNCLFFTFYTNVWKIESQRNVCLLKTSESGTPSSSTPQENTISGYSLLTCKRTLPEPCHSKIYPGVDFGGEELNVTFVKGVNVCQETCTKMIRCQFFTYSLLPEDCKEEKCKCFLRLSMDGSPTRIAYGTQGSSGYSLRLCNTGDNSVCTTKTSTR
In words: Determination of the plasma kallikrein activity (fluorogenic peptide substrate H-Pro-Phe-Arg-AMC). In kind it is biochemical. To be noted: plasma kallikrein from Kordia, 15 min preincubation, 30 min at 22° C., fluorescence; some as mean values from multiple determinations. How it is done: To determine the plasma kallikrein inhibition of the substances according to the invention, a biochemical test system is used which utilizes the reaction of a peptidic plasma kallikrein substrate to determine the enzymatic activity of human plasma kallikrein. Here, plasma kallikrein cleaves from the peptidic plasma kallikrein substrate the C-terminal aminomethylcoumarin (AMC), the fluorescence of which is measured. The determinations are carried out in microtitre plates.
Test substances are dissolved in dimethyl sulfoxide and serially diluted in dimethyl sulfoxide (3000 μM to 0.0078 μM; resulting final concentrations in the test: 50 μM to 0.00013 μM). In each case 1 μl of the diluted substance solutions is placed into the wells of white microtitre plates from Greiner (384 wells). 20 μl of assay buffer (50 mM Tris/HCl pH 7.4; 100 mM sodium chloride solution; 5 mM of calcium chloride solution; 0.1% of bovine serum albumin) and 20 μl of plasma kallikrein from Kordia (0.6 nM in assay buffer) are then added successively. After 15 min of incubation, the enzyme reaction is started by addition of 20 μl of the substrate H-Pro-Phe-Arg-AMC dissolved in assay buffer (10 μM in assay buffer) from Bachem, the mixture is incubated at room temperature (22° C.) for 30 min and fluorescence is then measured (excitation: 360 nm, emission: 460 nm). The measured emissions of the test batches with test substance are compared to those of control batches without test substance (only dimethyl sulfoxide instead of test substance in dimethyl sulfoxide), and IC50 values are calculated from the concentration/activity relationships. Activity data from this test are listed in Table B below (some as mean values from multiple independent individual determinations): […]

T1 sequence (P03951 388-625 limits assumed): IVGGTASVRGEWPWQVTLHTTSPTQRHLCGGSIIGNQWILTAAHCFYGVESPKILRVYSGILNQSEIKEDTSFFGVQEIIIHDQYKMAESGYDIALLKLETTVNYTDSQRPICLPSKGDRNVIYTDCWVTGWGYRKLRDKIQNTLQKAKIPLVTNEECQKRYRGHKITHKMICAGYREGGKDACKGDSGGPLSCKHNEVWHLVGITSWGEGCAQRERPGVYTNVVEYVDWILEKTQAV
T1 sequence (P03951 19-387 partner limits assumed): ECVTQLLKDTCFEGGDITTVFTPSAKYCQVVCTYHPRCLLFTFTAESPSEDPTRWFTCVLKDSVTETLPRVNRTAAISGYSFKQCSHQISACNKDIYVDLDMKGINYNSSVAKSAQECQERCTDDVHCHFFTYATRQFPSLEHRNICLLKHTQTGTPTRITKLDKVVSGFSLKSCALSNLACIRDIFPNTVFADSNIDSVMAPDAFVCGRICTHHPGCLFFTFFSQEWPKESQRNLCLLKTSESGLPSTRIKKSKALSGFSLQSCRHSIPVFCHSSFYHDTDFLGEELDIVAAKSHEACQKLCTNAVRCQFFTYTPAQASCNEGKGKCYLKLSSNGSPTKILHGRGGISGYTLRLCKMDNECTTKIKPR

Consider `CC[C@@H](C(=O)Nc1ccc(C(N)=O)c(F)c1)n1cc2c(cc1=O)-c1cc(Cl)ccc1C[C@@H](C)O[C@H]2C` (single isomer, unassigned) [Example 71], for which the IC50 in assay [1] turned out to be 3.5 nM; in assay [2], 225 nM.

`NC(=O)c1ccc(NC(=O)[C@H](C[C@@H]2CCCCO2)n2cc3c(cc2=O)-c2cc(Cl)ccc2C[C@@H](C(F)(F)F)OC3)cn1` (single isomer, unassigned) [Example 53]: the IC50 in assay [1] worked out at 2.3 nM; in assay [2], 300 nM.

Consider `C[C@@H]1Cc2ccc(Cl)cc2-c2cc(=O)n([C@@H](C[C@@H]3CCCCO3)C(=O)Nc3ccc(C(N)=O)nc3)cc2CO1` (single isomer, unassigned) [Example 4], for which the values for the IC50 in assay [1] and in assay [2] were 2.4 nM and 420 nM, respectively.

For `CC1Cc2ccc(Cl)cc2-c2cc(=O)n(C(C[C@@H]3COCCO3)C(=O)Nc3ccc4nn(C)nc4c3)cc2CO1` (mixture of isomers) [Example 11, 2-(11-Chloro-7-methyl-2-oxo-7,8-dihydro-2H-[3]benzoxocino[5,6-c]pyridin-3(5H)-yl)-3-[(2R)-1,4-dioxan-2-yl]-N-(2-methyl-2H-benzotriazol-5-yl)propanamide], the half-inhibitory concentration (IC50) stood at 19 nM in assay [1] and 190 nM in assay [2].

Consider `COCCC(C(=O)Nc1ccc(C(N)=O)cc1)n1cc2c(cc1=O)-c1cc(Cl)ccc1CC(C(F)(F)F)OC2` (mixture of isomers) [Example 62, 4-({2-[11-Chloro-2-oxo-7-(trifluoromethyl)-7,8-dihydro-2H-[3]benzoxocino[5,6-c]pyridin-3(5H)-yl]-4-methoxybutanoyl}amino)benzamide], for which the IC50 was 8.1 nM in assay [1] and 420 nM in assay [2].

In the case of `CO[C@@H](C)C[C@@H](C(=O)Nc1ccc(C(N)=O)cc1)n1cc2c(cc1=O)-c1c(ccc(Cl)c1F)C[C@@H](C)O[C@H]2C` (single isomer, unassigned) [Example 79], the figures for the IC50 in assay [1] and in assay [2] were 26 nM and 250 nM, respectively.

Take `C[C@@H]1Cc2ccc(Cl)cc2-c2cc(=O)n([C@@H](C[C@@H]3CCCCO3)C(=O)Nc3ccc(C(N)=O)c(F)c3)cc2[C@H](C)O1` (single isomer, unassigned) [Example 72]: the IC50 was determined as 2.5 nM in assay [1] and 65 nM in assay [2].

`CC1Cc2ccc(Cl)cc2-c2cc(=O)n(C(CCOC(C)(C)C)C(=O)Nc3ccc(C(N)=O)cc3)cc2CO1` (mixture of isomers) [Example 23, 4-{[4-tert-Butoxy-2-(11-chloro-7-methyl-2-oxo-7,8-dihydro-2H-[3]benzoxocino[5,6-c]pyridin-3(5H)-yl)butanoyl]amino}benzamide]: the IC50 amounted to 22 nM in assay [1] and 410 nM in assay [2].

`CO[C@@H](C)C[C@@H](C(=O)Nc1ccc(C(N)=O)cc1)n1cc2c(cc1=O)-c1cc(Cl)ccc1C[C@@H](C)OC2` (single isomer, unassigned) [Example 13]: the IC50 worked out at 4.6 nM in assay [1] and 205 nM in assay [2].

As for `C[C@@H]1Cc2ccc(Cl)cc2-c2cc(=O)n([C@@H](C[C@@H]3CCCCO3)C(=O)Nc3ccc(C(N)=O)c(F)c3)cc2CO1` (single isomer, unassigned) [Example 2], the IC50 in assay [1] was determined as 5.5 nM; in assay [2] it was 320 nM.

`CC(C)C1Cc2ccc(Cl)cc2-c2cc(=O)n(C(C[C@@H]3COCCO3)C(=O)Nc3ccc4nn(C)nc4c3)cc2CO1` (mixture of isomers) [Example 44, 2-(11-Chloro-7-isopropyl-2-oxo-7,8-dihydro-2H-[3]benzoxocino[5,6-c]pyridin-3(5H)-yl)-3-[(2R)-1,4-dioxan-2-yl]-N-(2-methyl-2H-benzotriazol-5-yl)propanamide]: the IC50 in assay [1] came to 49 nM; in assay [2], 1600 nM.

Turning to `NC(=O)c1ccc(NC(=O)[C@H](C[C@@H]2CCCCO2)n2cc3c(cc2=O)-c2cc(Cl)ccc2C[C@@H](C(F)(F)F)OC3)cc1` (single isomer, unassigned) [Example 55], the values for the IC50 in assay [1] and in assay [2] were 0.5 nM and 91 nM, respectively.

As to `COCCC(C(=O)Nc1ccc(C(N)=O)c(F)c1)n1cc2c(cc1=O)-c1cc(Cl)ccc1CC(C(F)(F)F)OC2` (mixture of isomers) [Example 60, 4-({2-[11-Chloro-2-oxo-7-(trifluoromethyl)-7,8-dihydro-2H-[3]benzoxocino[5,6-c]pyridin-3(5H)-yl]-4-methoxybutanoyl}amino)-2-fluorobenzamide], the figures for the IC50 in assay [1] and in assay [2] were 26 nM and 780 nM, respectively.

Regarding `NC(=O)c1ccc(NC(=O)[C@H](C[C@@H]2CCCCO2)n2cc3c(cc2=O)-c2c(ccc(Cl)c2F)C[C@@H](C(F)(F)F)OC3)cc1` (single isomer, unassigned) [Example 69], the IC50 worked out at 1.1 nM in assay [1] and 55 nM in assay [2].

On to `CO[C@@H](C)C[C@@H](C(=O)Nc1ccc(C(N)=O)cc1)n1cc2c(cc1=O)-c1cc(Cl)ccc1C[C@@H](C(F)(F)F)OC2` (single isomer, unassigned) [Example 67], for which the IC50 in assay [1] worked out at 3.5 nM; in assay [2] it was 220 nM.

With `CC1Cc2ccc(Cl)cc2-c2cc(=O)n(C(C[C@@H]3CCCCO3)C(=O)Nc3ccc(C(N)=O)cc3)cc2CO1` (mixture of isomers) [Example 5, 4-({2-(11-Chloro-7-methyl-2-oxo-7,8-dihydro-2H-[3]benzoxocino[5,6-c]pyridin-3(5H)-yl)-3-[(2S)-tetrahydro-2H-pyran-2-yl]propanoyl}amino)benzamide], the IC50 in assay [1] came out at 4.3 nM; in assay [2], 400 nM.

Regarding `C[C@@H]1Cc2ccc(Cl)cc2-c2cc(=O)n([C@@H](CCOC(C)(C)C)C(=O)Nc3ccc(C(N)=O)c(F)c3)cc2CO1` (single isomer, unassigned) [Example 22], the half-inhibitory concentration (IC50) in assay [1] was determined as 19 nM; in assay [2], 280 nM.

Regarding `CO[C@H](C[C@@H](C(=O)Nc1ccc(C(N)=O)cc1)n1cc2c(cc1=O)-c1cc(Cl)ccc1C[C@@H](C)OC2)C1CC1` (single isomer, unassigned) [Example 14], the IC50 was 3.9 nM in assay [1] and 220 nM in assay [2].

Turning to `CC1Cc2ccc(Cl)cc2-c2cc(=O)n(C(C[C@@H]3COCCO3)C(=O)Nc3ccc(C(N)=O)c(F)c3)cc2CO1` (mixture of isomers) [Example 7, 4-({2-(11-Chloro-7-methyl-2-oxo-7,8-dihydro-2H-[3]benzoxocino[5,6-c]pyridin-3(5H)-yl)-3-[(2R)-1,4-dioxan-2-yl]propanoyl}amino)-2-fluorobenzamide], the concentration for half-maximal inhibition (IC50) is 14 nM in assay [1] and 780 nM in assay [2].

As for `CC[C@@H](C(=O)Nc1ccc(C(N)=O)c(F)c1)n1cc2c(cc1=O)-c1cc(Cl)ccc1CC(C(F)F)OC2` (mixture of isomers) [Example 46, 4-({(2S)-2-[11-Chloro-7-(difluoromethyl)-2-oxo-7,8-dihydro-2H-[3]benzoxocino[5,6-c]pyridin-3(5H)-yl]butanoyl}amino)-2-fluorobenzamide], the IC50 in assay [1] amounted to 110 nM; in assay [2], 2300 nM.

`CC(C)[C@@H]1Cc2ccc(Cl)cc2-c2cc(=O)n([C@@H](C[C@@H]3COCCO3)C(=O)Nc3ccc(C(N)=O)c(F)c3)cc2CO1` (single isomer, unassigned) [Example 41]: the IC50 in assay [1] is 10 nM; in assay [2], 1600 nM.

In the case of `CC(C)C1Cc2ccc(Cl)cc2-c2cc(=O)n(C(C[C@@H]3COCCO3)C(=O)Nc3ccc(C(N)=O)c(F)c3)cc2CO1` (mixture of isomers) [Example 40, 4-({2-(11-Chloro-7-isopropyl-2-oxo-7,8-dihydro-2H-[3]benzoxocino[5,6-c]pyridin-3(5H)-yl)-3-[(2R)-1,4-dioxan-2-yl]propanoyl}amino)-2-fluorobenzamide], the figures for the IC50 in assay [1] and in assay [2] were 41 nM and 4800 nM, respectively.

For the molecule `CO[C@@H](C)C[C@@H](C(=O)Nc1ccc(C(N)=O)cc1)n1cc2c(cc1=O)-c1c(ccc(Cl)c1F)C[C@@H](C(F)(F)F)OC2` (single isomer, unassigned) [Example 78], the IC50 in assay [1] is 1.5 nM; in assay [2] it was 74 nM.
